Patent US4888283A, “Selective inhibitors of benzylaminoxidases with respect to other aminoxidases” (priority 1985, dated 1989)
Counter-ions that a name gives are not always drawn.

Test system: Pure BAO obtained from swine plasma
Assay: Inhibition type on BAO (Lineweaver-Burk)
Format: biochemical
Parameters: key: competitive inhibition; nc: not competitive inhibition; mixed inhibition
Settings: 1/v vs. 1/s, 5 substrate concentrations
Source text: (§1) Pure BAO obtained from swine plasma by the procedure disclosed by F. Buffoni and H. Blaschko (Proc. Roy. Soc. B 161, 153 (1964)); DAO from swine kidney, as obtained and purified by the Sigma (St. Louis, Md., USA, 0.25 U/mg); purified LAO from swine aorta obtained by the procedure disclosed by F. Buffoni and L. Raimondi (Agents and Actions, 11, 38 (1981)). Rat liver mitochondria obtained by the procedure disclosed by G. W. Schneider and G. H. Hogeboon (J. Biol. Chem., 183, 123 (1950)) were employed as the source of MAO.
The inhibition type was evaluated by studying the effect of the compound on the enzymic rate (v) at 5 different concentrations of the substrate (s) and plotting the results by the classical procedure as 1/v vs. 1/s according to Lineweaver-Burk.

SMILES | BAO: inhibition type
CCCCOc1cccc(OCCCC)c1CN.Cl [Example 4, 2,6-di(n-butoxy)benzylamine hydrochloride] | nc
CCc1cccc(CC)c1CN.Cl [Example 11, 2,6-diethylbenzylamine hydrochloride] | nc
COCc1cccc(COC)c1CN.Cl [Example 10, 2,6-bis(methoxymethyl)benzylamine hydrochloride] | m

Test system: Pure BAO obtained from swine plasma
Assay: Compound as the substrate of BAO (production of H2O2)
Format: biochemical
Parameters: key: the compound is the substrate; ns: the compound is not the substrate
Settings: 37° C., air
Procedure: (§2) The oxidation of the compound is estimated in all cases by measuring the production of H2 O2. Such operation is carried out within a temperature-controlled bath set at 37° C. and stirred, in the presence of air. The production-of H2 O2 is quantitatively determined by the method of H. P. Lehman, K. H. Schosinsky, M. F. Beeler (Clin. Chem., 20, 1564 (1974)).
as §1

SMILES | BAO: compound as the substrate
CC(C)Oc1cccc(OC(C)C)c1CN.Cl [Example 3, 2,6-diisopropoxybenzylamine hydrochloride] | s weak
CCCCOc1cccc(OCCCC)c1CN.Cl [Example 4, 2,6-di(n-butoxy)benzylamine hydrochloride] | ns
CCc1cccc(CC)c1CN.Cl [Example 11, 2,6-diethylbenzylamine hydrochloride] | ns
Cl.NCc1ccccc1CO [Example 6, 2-hydroxymethylbenzylamine hydrochloride] | s
COCc1cccc(COC)c1CN.Cl [Example 10, 2,6-bis(methoxymethyl)benzylamine hydrochloride] | ns

Test system: MAO (rat liver mitochondria)
Assay: Inhibition of monoaminoxidases (MAO), isotopic procedure with 14C-beta-phenylethylamine
Format: biochemical
Settings: 30 minutes pre-incubation; 14C-beta-phenylethylamine 1.7 mM; mean ± s.e.
Procedure: The quantitative determination of monoaminoxidases (MAO's) is carried out by the same procedure as the determination of BAO's, but ^14 C-beta-phenylethylamine is employed at the final concentration of 1.7 mM.
as §1
(§3) IC50 (M)=The molar concentration of the inhibitor that inhibits 50% of the enzyme activity at a saturating concentration of the substrate. Said concentration is calculated from curves obtained by pre-incubation of the compound for 30 minutes (at 6 different concentrations) with the enzyme before adding the substrate and determining the enzymic rate.
(§4) The repetition of the experiments allows to obtain the average values of the IC50 (M) as well as the relative standard errors.

SMILES | IC50 [mM]
CC(C)Oc1cccc(OC(C)C)c1CN.Cl [Example 3, 2,6-diisopropoxybenzylamine hydrochloride] | > 1
CCCCOc1cccc(OCCCC)c1CN.Cl [Example 4, 2,6-di(n-butoxy)benzylamine hydrochloride] | > 1
CCc1cccc(CC)c1CN.Cl [Example 11, 2,6-diethylbenzylamine hydrochloride] | > 1
NCc1c(O)cccc1O [Example 8, 2,6-dihydroxybenzylamine hydrochloride] | > 1
Cl.NCc1ccccc1CO [Example 6, 2-hydroxymethylbenzylamine hydrochloride] | > 1
COCc1cccc(COC)c1CN.Cl [Example 10, 2,6-bis(methoxymethyl)benzylamine hydrochloride] | > 1

Test system: Pure BAO obtained from swine plasma
Assay: Reversibility of BAO inhibition by dialysis
Format: biochemical
Parameters: key: reversible inhibition; irreversible inhibition; pr: partially reversible inhibition
Settings: dialysis of the solution
Source text: as §1
The reversibility of the effect was evaluated showing that the inhibition caused by a certain concentration of the inhibitor (for instance the IC50 value) would be reverted by dialysis of the solution.

SMILES | BAO: reversibility of the inhibition
CCCCOc1cccc(OCCCC)c1CN.Cl [Example 4, 2,6-di(n-butoxy)benzylamine hydrochloride] | pr
CCc1cccc(CC)c1CN.Cl [Example 11, 2,6-diethylbenzylamine hydrochloride] | r
COCc1cccc(COC)c1CN.Cl [Example 10, 2,6-bis(methoxymethyl)benzylamine hydrochloride] | pr

Test system: BAO's
Assay: not given
Settings: background statement; read-out: I50 on BAO's; cited from earlier work

SMILES | IC50 [mM]
N#CCCN [beta-aminopropionitrile] | > 10

Same assay, conditions: high concentrations; background statement; cited from earlier work

SMILES | Kind of inhibition of BAO's
N#CCCN [beta-aminopropionitrile] | irreversibly

Test system: MAO (rat liver mitochondria)
Assay: Compound as the substrate of MAO (production of H2O2)
Format: biochemical
Parameters: key: the compound is the substrate; ns: the compound is not the substrate
Settings: 37° C., air
Procedure: as §2, §1

SMILES | MAO: compound as the substrate
CC(C)Oc1cccc(OC(C)C)c1CN.Cl [Example 3, 2,6-diisopropoxybenzylamine hydrochloride] | s weak
CCCCOc1cccc(OCCCC)c1CN.Cl [Example 4, 2,6-di(n-butoxy)benzylamine hydrochloride] | ns
CCc1cccc(CC)c1CN.Cl [Example 11, 2,6-diethylbenzylamine hydrochloride] | s
Cl.NCc1ccccc1CO [Example 6, 2-hydroxymethylbenzylamine hydrochloride] | ns
COCc1cccc(COC)c1CN.Cl [Example 10, 2,6-bis(methoxymethyl)benzylamine hydrochloride] | ns

Target: T1, DAO from swine kidney (Sus scrofa, UniProt Q9TRC7)
T1 construct: DAO from swine kidney, as obtained and purified by the Sigma; purchased Sigma (St. Louis); host or cells: swine kidney
T1 sequence (Q9TRC7 25-755): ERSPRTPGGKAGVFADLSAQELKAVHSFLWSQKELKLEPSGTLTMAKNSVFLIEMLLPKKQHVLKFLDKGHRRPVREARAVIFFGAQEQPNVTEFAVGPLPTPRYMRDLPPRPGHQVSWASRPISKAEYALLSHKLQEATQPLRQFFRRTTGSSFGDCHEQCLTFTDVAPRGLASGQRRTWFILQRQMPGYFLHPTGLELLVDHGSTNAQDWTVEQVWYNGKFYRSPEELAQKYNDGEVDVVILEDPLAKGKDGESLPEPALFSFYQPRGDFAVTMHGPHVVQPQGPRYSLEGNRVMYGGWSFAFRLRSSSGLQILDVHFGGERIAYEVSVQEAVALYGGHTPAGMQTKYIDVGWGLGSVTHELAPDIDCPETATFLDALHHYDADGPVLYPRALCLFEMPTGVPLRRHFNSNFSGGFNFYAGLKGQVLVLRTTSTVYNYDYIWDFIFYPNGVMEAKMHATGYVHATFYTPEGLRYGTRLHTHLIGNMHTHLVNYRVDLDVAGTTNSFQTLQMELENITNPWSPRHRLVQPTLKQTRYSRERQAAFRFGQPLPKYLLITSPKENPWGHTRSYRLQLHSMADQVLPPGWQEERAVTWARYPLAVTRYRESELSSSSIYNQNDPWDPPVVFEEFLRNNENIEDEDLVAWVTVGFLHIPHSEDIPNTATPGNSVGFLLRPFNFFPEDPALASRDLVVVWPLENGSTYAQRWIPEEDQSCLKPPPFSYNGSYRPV
Assay: Compound as the substrate of DAO (production of H2O2)
Format: biochemical
Parameters: key: the compound is the substrate; ns: the compound is not the substrate
Settings: 37° C., air
Procedure: as §2, §1

SMILES | DAO: compound as the substrate
CC(C)Oc1cccc(OC(C)C)c1CN.Cl [Example 3, 2,6-diisopropoxybenzylamine hydrochloride] | s weak
CCCCOc1cccc(OCCCC)c1CN.Cl [Example 4, 2,6-di(n-butoxy)benzylamine hydrochloride] | s
CCc1cccc(CC)c1CN.Cl [Example 11, 2,6-diethylbenzylamine hydrochloride] | s
Cl.NCc1ccccc1CO [Example 6, 2-hydroxymethylbenzylamine hydrochloride] | s
COCc1cccc(COC)c1CN.Cl [Example 10, 2,6-bis(methoxymethyl)benzylamine hydrochloride] | s

Target: Pure BAO obtained from swine plasma
Assay: Inhibition of benzylaminoxidase (BAO), isotopic procedure with 14C-benzylamine
Format: biochemical
Settings: 30 minutes pre-incubation; 14C-benzylamine 1,7 mM (saturating); mean ± s.e.
Procedure: The quantitative determination of benzylaminoxidases (BAO's) is carried out by the isotopic procedure disclosed by F. Buffoni and G. Ignesti (Biochem. J.; 145, 369 (1975)) employing ^14 C-benzylamine as the substrate at the final concentration of 1,7 mM.
as §1, §3, §4

SMILES | IC50 [mM]
CC(C)Oc1cccc(OC(C)C)c1CN.Cl [Example 3, 2,6-diisopropoxybenzylamine hydrochloride] | > 1
CCCCOc1cccc(OCCCC)c1CN.Cl [Example 4, 2,6-di(n-butoxy)benzylamine hydrochloride] | 0.00014
NCc1c(O)cccc1O [Example 8, 2,6-dihydroxybenzylamine hydrochloride] | 1
Cl.NCc1ccccc1CO [Example 6, 2-hydroxymethylbenzylamine hydrochloride] | 1

Same assay, conditions: compounds already known in the literature, prepared again

SMILES | Activity as inhibitors of BAO (in words)
Cl.NCc1ccccc1CO [Example 6, 2-hydroxymethylbenzylamine hydrochloride] | active indeed, though at a low degree
